The text below walks through data of patent US20060069132A1, “Azolecarboxamide herbicides” (priority 2004, published 2006).

What all share (experiment): Test E pre-/postemergence herbicide test
For one assay, the system named is dallisgrass. The class given is in vivo, Paspalum dilatatum. The source says:
(§1) Seeds of plant species selected from bipinnate beggarticks (Bidens bipinnata L.), hairy beggarticks (Bidens radiata Thuill.), bermudagrass (Cynodon dactylon (L.) Pers.), Surinam grass (Urochloa decumbens (Staph) R. D. Webster, previously named Brachiaria decumbens Stapf), large crabgrass (Digitaria sanguinalis (L.) Scop.), green foxtail (Setaria viridis (L.) P. Beauv.), goosegrass (Eleusine indica (L.) Gaertn.), johnsongrass (Sorghum halepense (L.) Pers.), kochia (Kochia scoparia (L.) Schrad.), pitted morningglory (Ipomoea lacunosa L.), purple nutsedge (Cyperus rotundus L.), common ragweed (Ambrosia elatior L.), mustard (Brassica nigra (L.) W. D. J. Koch), guineagrass (Panicum maximum Jacq.), dallisgrass (Paspalum dilatatum Poir.), barnyardgrass (Echinochloa crus-galli (L). P. Beauv.), southern sandbur (Cenchrus echinatus L.), common sowthistle (Sonchus oleraceous L.), prickly sida (Sida spinosa L.), Italian ryegrass (Lolium multiflorum Lam.), common purslane (Portulaca oleracea L.), broadleaf signalgrass (Brachiaria platyphylla (Griseb.) Nash), common groundsel (Senecio vulgaris L.), common chickweed (Stellaria media (L.) Vill/Cyr.), tropical spiderwort (Commelina benghalensis L.), annual bluegrass (Poa annua L.), downy bromegrass (Bromus tectorum L.), itchgrass (Rottboellia cochinchinensis (L.) L.f.), quackgrass (Elytrigia repens (L.) Nevski), Canada horseweed (Erigeron Canadensis L.), field bindweed (Convolvulus arvensis L.), spotted spurge (Euphorbia maculata L.), common mallow (Malva sylvestris (=s silvestris) L.), and Russian thistle (Salsola kali L. ssp. Ruthenica (Iljin) Soo) were planted and treated preemergence with test chemicals formulated in a non-phytotoxic solvent mixture which included a surfactant.
(§2) At the same time, plants selected from these weed species were treated with postemergence applications of some of the test chemicals formulated in the same manner. Plants ranged in height from 2 to 18 cm (1- to 4-leaf stage) for postemergence treatments. Treated plants and controls were maintained in a greenhouse for 12 to 14 days, after which time all species were compared to controls and visually evaluated. Plant response ratings, summarized in Table E, are based on a scale of 0 to 100 where 0 is no effect and 100 is complete control. A dash (-) response means no test result.

Another assay concerns kochia. The class given is in vivo, Kochia scoparia.
From the text: as §1, §2

In the next assay the test system is purple nutsedge. The class given is in vivo, Cyperus rotundus.
From the text: as §1, §2

The test system of another assay is Russian thistle. The class given is in vivo, Salsola kali.
From the text: as §1, §2

The mark [1] stands for this setting: Preemergence, 62 g ai/ha, scale 0 to 100.
The mark [2] stands for this setting: Preemergence, 125 g ai/ha, scale 0 (no effect) to 100 (complete control).
The mark [3] stands for this setting: Preemergence, 250 g ai/ha, scale 0 (no effect) to 100 (complete control).
Setting [4] is: Preemergence, 500 g ai/ha, scale 0 (no effect) to 100 (complete control).
[5] abbreviates: Preemergence, 125 g ai/ha, scale 0 to 100.
Setting [6] is: Postemergence, 500 g ai/ha, scale 0 to 100.
[7] abbreviates: Postemergence, 250 g ai/ha, scale 0 to 100.
The mark [8] stands for this setting: postemergence, 125 g ai/ha, scale 0 to 100.
[9] abbreviates: postemergence, 62 g ai/ha, scale 0 to 100.

Molecules are shown by their SMILES.

As to `CCNC(=O)c1cccc(NC(=O)c2cc(C(C)(C)C)nn2CC)n1` [Compound 144], the “Plant response rating, Dallisgrass” value was 0 in the assay on dallisgrass (setting [1]), 30 with dallisgrass (setting [2]), 60 with dallisgrass (setting [3]) and 80 in the assay with dallisgrass (setting [4]). Further, the “Plant response rating, Kochia” value in the assay on kochia (setting [1]) came out at 0; in the assay with kochia (setting [2]), 60; in the assay on kochia (setting [3]), 90; in the assay on kochia (setting [4]) it was 90. The “Plant response rating, Nutsedge, Purple” value in the assay with purple nutsedge (setting [1]) worked out at 0; with purple nutsedge (setting [2]), 30; in the assay with purple nutsedge (setting [3]) it was 30; with purple nutsedge (setting [4]), 50.
Take `CCN1N=C(C(C)(C)C)CC1C(=O)Nc1cc(C(=O)N(C)C)ccc1F` (centres unmarked) [Compound 268, N-[5-[(dimethylamino)carbonyl]-2-fluorophenyl]-3-(1,1-dimethylethyl)-1-ethyl-4,5-dihydro-1H-pyrazole-5-carboxamide]: the results for the “Plant response rating, Thistle” value in the assay on Russian thistle (setting [5]) and in the assay on Russian thistle (setting [4]) were 60 and 100, respectively. In addition, the “Plant response rating, Dallisgrass” value was found to be 70 in the assay on dallisgrass (setting [1]), 80 in the assay on dallisgrass (setting [5]), 85 in the assay with dallisgrass (setting [3]) and 85 in the assay on dallisgrass (setting [4]). Further, the “Plant response rating, Nutsedge, Purple” value came to 50 with purple nutsedge (setting [1]), 70 in the assay on purple nutsedge (setting [5]), 85 with purple nutsedge (setting [3]) and 85 in the assay on purple nutsedge (setting [4]).
With `CCc1nn(C(C)(C)C)cc1C(=O)Nc1cc(C(=O)N(C)C)ccc1F` [Compound 222, N-[5-[(dimethylamino)carbonyl]-2-fluorophenyl]-1-(1,1-dimethylethyl)-3-ethyl-1H-pyrazole-4-carboxamide], the “Plant response rating, Dallisgrass” value in the assay on dallisgrass (setting [6]) stood at 85; in the assay with dallisgrass (setting [7]), 85; in the assay on dallisgrass (setting [1]) it was 50; in the assay on dallisgrass (setting [5]), 80; in the assay on dallisgrass (setting [3]) it was 100; in the assay on dallisgrass (setting [4]), 100. Besides, the “Plant response rating, Dallisgrass” value amounted to 60 with dallisgrass (setting [8]) and 30 with dallisgrass (setting [9]). Moreover, the “Plant response rating, Kochia” value in the assay on kochia (setting [1]) was found to be 30; with kochia (setting [5]) it was 100; in the assay on kochia (setting [3]), 100; in the assay with kochia (setting [4]) it was 100. For the same compound, the “Plant response rating, Nutsedge, Purple” value amounted to 30 in the assay on purple nutsedge (setting [7]); 10 in the assay with purple nutsedge (setting [1]); 40 with purple nutsedge (setting [5]); 70 with purple nutsedge (setting [3]); 80 in the assay with purple nutsedge (setting [4]); 10 in the assay with purple nutsedge (setting [8]). For the same compound, the “Plant response rating, Nutsedge, Purple” value in the assay with purple nutsedge (setting [9]) was 10.
Turning to `CCNC(=O)c1ccc(F)c(NC(=O)c2cn(C(C)(C)C)nc2CC)c1` [Compound 193], the “Plant response rating, Dallisgrass” value with dallisgrass (setting [6]) is 90; in the assay on dallisgrass (setting [7]) it was 90; in the assay on dallisgrass (setting [1]), 40; with dallisgrass (setting [5]), 95; in the assay on dallisgrass (setting [3]), 95; with dallisgrass (setting [4]) it was 100. For the same compound, the “Plant response rating, Dallisgrass” value in the assay with dallisgrass (setting [8]) stood at 40; with dallisgrass (setting [9]), 10. For the same compound, the “Plant response rating, Kochia” value with kochia (setting [1]), in the assay with kochia (setting [5]), in the assay with kochia (setting [3]) and with kochia (setting [4]) was 100 throughout. For the same compound, the “Plant response rating, Nutsedge, Purple” value is reported as 70 in the assay on purple nutsedge (setting [6]); 40 with purple nutsedge (setting [7]); 0 in the assay on purple nutsedge (setting [1]); 30 in the assay with purple nutsedge (setting [5]); 50 in the assay with purple nutsedge (setting [3]); 80 with purple nutsedge (setting [4]). The “Plant response rating, Nutsedge, Purple” value in the assay on purple nutsedge (setting [8]) is given as 20; in the assay with purple nutsedge (setting [9]), 0.
For `CCn1nc(C(C)(C)C)cc1C(=O)Nc1cc(C(=O)N(C)C)ccn1` [Compound 156, 2-[[[3-(1,1-dimethylethyl)-1-ethyl-1H-pyrazol-5-yl]carbonyl]amino]-N,N-dimethyl-4-pyridinecarboxamide], the “Plant response rating, Thistle” value in the assay with Russian thistle (setting [7]) was determined as 80; in the assay on Russian thistle (setting [1]), 80; in the assay on Russian thistle (setting [5]) it was 100; with Russian thistle (setting [4]) it was 100. Further, the “Plant response rating, Dallisgrass” value with dallisgrass (setting [6]) is 90; in the assay with dallisgrass (setting [7]) it was 90; in the assay on dallisgrass (setting [1]) it was 90; in the assay with dallisgrass (setting [5]) it was 95; with dallisgrass (setting [3]), 100; in the assay with dallisgrass (setting [4]), 100. The “Plant response rating, Dallisgrass” value stood at 85 with dallisgrass (setting [8]) and 75 in the assay on dallisgrass (setting [9]). The “Plant response rating, Kochia” value in the assay with kochia (setting [6]), in the assay on kochia (setting [7]), in the assay on kochia (setting [1]), in the assay on kochia (setting [5]), with kochia (setting [3]) and with kochia (setting [4]) was 100 throughout. In the assay with kochia (setting [8]), the “Plant response rating, Kochia” value was found to be 100. Further, the “Plant response rating, Nutsedge, Purple” value in the assay on purple nutsedge (setting [7]) worked out at 90; with purple nutsedge (setting [4]), 95; with purple nutsedge (setting [8]), 75.
